Assay: xn = mol fraction of the nth substance listed
Conditions: 101 kPa, Liquid; for mass density: Pycnometric method

CCOCCOCCOCCO [2-(2-(2-ethoxyethoxy)ethoxy)ethanol] + O
Conditions | mass density [kg/m3] | viscosity [mPa·s]
293.15 K, x1 = 0.01119 | 1006.9 | 1.484
293.15 K, x1 = 0.02492 | 1016.6 | 2.221
293.15 K, x1 = 0.04128 | 1026.2 | 3.256
293.15 K, x1 = 0.06284 | 1035.1 | 4.832
293.15 K, x1 = 0.09179 | 1040.8 | 6.993
293.15 K, x1 = 0.1317 | 1042.7 | 9.102
293.15 K, x1 = 0.1905 | 1042.2 | 10.54
293.15 K, x1 = 0.2885 | 1038.7 | 11.29
293.15 K, x1 = 0.4019 | 1033.6 | 11.34
293.15 K, x1 = 0.4747 | 1031.1 | 10.93
293.15 K, x1 = 0.6076 | 1027.3 | 10.06
293.15 K, x1 = 0.7399 | 1024.4 | 9.168
293.15 K, x1 = 0.8176 | 1022.9 | 8.738
293.15 K, x1 = 0.8956 | 1021.8 | 8.353
293.15 K, x1 = 1 | 1020.6 | 7.796
298.15 K, x1 = 1 | 1016.3 | 6.739
303.15 K, x1 = 0.01119 | 1003.7 | 1.129
303.15 K, x1 = 0.02492 | 1012.6 | 1.595
303.15 K, x1 = 0.04128 | 1020.7 | 2.344
303.15 K, x1 = 0.06284 | 1028.7 | 3.349
303.15 K, x1 = 0.09179 | 1032.8 | 4.589
303.15 K, x1 = 0.1317 | 1034.9 | 5.955
303.15 K, x1 = 0.1905 | 1033.9 | 7.032
303.15 K, x1 = 0.2885 | 1029.8 | 7.522
303.15 K, x1 = 0.4019 | 1024.9 | 7.547
303.15 K, x1 = 0.4747 | 1022.3 | 7.378
303.15 K, x1 = 0.6076 | 1018.5 | 6.868
303.15 K, x1 = 0.7399 | 1015.5 | 6.386
303.15 K, x1 = 0.8176 | 1014.1 | 6.178
303.15 K, x1 = 0.8956 | 1013.1 | 5.884
303.15 K, x1 = 1 | 1011.9 | 5.657
308.15 K, x1 = 1 | 1008.1 | –
313.15 K, x1 = 0.01119 | 999.7 | 0.9341
313.15 K, x1 = 0.02492 | 1007.5 | 1.261
313.15 K, x1 = 0.04128 | 1014.8 | 1.747
313.15 K, x1 = 0.06284 | 1021.8 | 2.429
313.15 K, x1 = 0.09179 | 1025.3 | 3.265
313.15 K, x1 = 0.1317 | 1026.5 | 4.072
313.15 K, x1 = 0.1905 | 1025.5 | 4.899
313.15 K, x1 = 0.2885 | 1021.4 | 5.382
313.15 K, x1 = 0.4019 | 1016.5 | 5.391
313.15 K, x1 = 0.4747 | 1013.9 | 5.226
313.15 K, x1 = 0.6076 | 1010.2 | 4.953
313.15 K, x1 = 0.7399 | 1007.4 | 4.586
313.15 K, x1 = 0.8176 | 1006.1 | 4.457
313.15 K, x1 = 0.8956 | 1005.1 | 4.315
313.15 K, x1 = 1 | 1003.9 | 4.185
323.15 K, x1 = 0.01119 | 995.1 | 0.7411
323.15 K, x1 = 0.02492 | 1002.1 | 1.013
323.15 K, x1 = 0.04128 | 1008.7 | 1.369
323.15 K, x1 = 0.06284 | 1014.4 | 1.859
323.15 K, x1 = 0.09179 | 1017.4 | 2.436
323.15 K, x1 = 0.1317 | 1018.1 | 3.015
323.15 K, x1 = 0.1905 | 1016.8 | 3.558
323.15 K, x1 = 0.2885 | 1012.7 | 3.942
323.15 K, x1 = 0.4019 | 1007.7 | 3.965
323.15 K, x1 = 0.4747 | 1005.2 | 3.885
323.15 K, x1 = 0.6076 | 1001.6 | 3.735
323.15 K, x1 = 0.7399 | 998.8 | 3.552
323.15 K, x1 = 0.8176 | 997.6 | 3.509
323.15 K, x1 = 0.8956 | 996.6 | 3.437
323.15 K, x1 = 1 | 995.5 | 3.326
333.15 K, x1 = 0.01119 | 989.6 | 0.6117
333.15 K, x1 = 0.02492 | 995.7 | 0.8193
333.15 K, x1 = 0.04128 | 1001.9 | 1.092
333.15 K, x1 = 0.06284 | 1006.2 | 1.433
333.15 K, x1 = 0.09179 | 1008.5 | 1.853
333.15 K, x1 = 0.1317 | 1008.7 | 2.252
333.15 K, x1 = 0.1905 | 1007.3 | 2.652
333.15 K, x1 = 0.2885 | 1003.1 | 2.923
333.15 K, x1 = 0.4019 | 998.5 | 3.006
333.15 K, x1 = 0.4747 | 996.1 | 2.953
333.15 K, x1 = 0.6076 | 992.5 | 2.879
333.15 K, x1 = 0.7399 | 989.8 | 2.774
333.15 K, x1 = 0.8176 | 988.6 | 2.728
333.15 K, x1 = 0.8956 | 987.7 | 2.697
333.15 K, x1 = 1 | 986.7 | 2.627

Reference: the NIST ThermoML archive (doi:10.1021/je9008014)
